According to patent EP0359529B1, “Method for the control of pneumocystis carinii” (Merck & Co., Inc., priority 1988, dated 1990):
Numbered stars: 1 amine (or outer) side, 2 acyl side, 3 side chain; on linkers, the order of the positions; unused ones are H or OH. Bridge positions count the residues as written; N and C are the ends. Square brackets hold non-standard residues; d marks the D form. Peptide text beside a SMILES is read from it. * marks the point of attachment. ξ: configuration not given here. ξOrn(4R-OH,5R-OH) = O=C(C(C[C@@H](O)[C@@H](O)N[*:3])N[*:1])[*:2]; ξhTyr(3S-OH,4S-OH) = NC(C(=O)O)[C@H](O)[C@@H](O)c1ccc(O)cc1; ξOrn(4,5-diOH) = O=C(C(CC(O)C(O)N[*:3])N[*:1])[*:2]; ξhTyr(βξ-OH,γξ-OH) = NC(C(=O)O)C(O)C(O)c1ccc(O)cc1; Benzoyl(4-octyloxy) = CCCCCCCCOc1ccc(C(=O)*)cc1; X3 = C[C@H]1CN([*:1])C(C(=O)[*:2])[C@H]1O; ξPro(3ξ-OH,4ξ-Me) = CC1CNC(C(=O)O)C1O; X2 = NC(=O)CC(O)C(N[*:1])C(=O)[*:2]; ξPro(4R-OH) = O=C(O)C1C[C@@H](O)CN1; X1 = CCC(C)CC(C)CCCCCCCCC(=O)*; Hyp = O=C(O)[CH]1C[CH](O)CN1; ξT = CC(O)C(N)C(=O)O

What was measured:
P. carinii [1] = assay: Immunosuppressed rat study of P. carinii infection, two week treatment, lung cysts and parasite nuclei counted; format: in vivo, Sprague-Dawley rats; details: dexamethasone-immunosuppressed rats; two weeks treatment; Compound IA 2 mg i.p. twice daily; TMP-SMZ in drinking water (208 mg TMP and 1.040 g SMZ/liter); controls 3.2 x 10⁸ - 1.5 x 10⁹
Protocol: In a representative study employing Compound IA in rats, nine male Sprague-Dawley rats weighing approximately 200 grams each, were immunosupressed by the addition of dexamethasone to the drinking water (2.0 mg/liter) for six weeks to induce the development of P. carinii infections. To enhance the infection the rats were also maintained on a low protein diet. At the beginning of the seventh week the rats were divided into three groups of three rats each. All three groups continued to receive dexamethasone in the drinking water and low protein diet throughout the remainder of the study. The rats in Group I were kept as untreated infected controls, those in Group II were injected intraperitoneally twice daily for two weeks with 0.5 ml of sterile dH₂O containing 2 mg of Compound IA, and those in Group III were treated with trimethoprim-sulfamethoxazole (TMP-SMZ) in the drinking water (208 mg TMP and 1.040 g of SMZ/liter) for two weeks, a known treatment for P. carinii infections. Two rats died early in the experiment. One was from group II (rat 72A) and the other from group III (rat 75A). It was not determined whether they died from Pneumocystis pneumonia. At the end of the two week treatment period (a total of eight weeks of immonosuppression) the animals were sacrificed and the lung tissue removed. […]

P. carinii [2] = assay: Similar immunosuppressed rat study, 7 day treatment, cysts per lung counted; format: in vivo; details: immunosuppressed rats; 2 mg/kg injected twice daily for 7 days; vehicle 10% DMSO
Protocol: A similar rat study was conducted to determine the antipneumocystis activity of 1-[(4R,5R)-4,5-dihydroxy-N²-[4-(octyloxy)benzoyl]-L-ii ornithine]echinocandin B (Compound IBii). After 6 weeks of immunosuppression the rats were injected twice daily for 7 days with vehicle alone. Compound IBii (2 mg/kg) or Compound IA (2 mg/kg) during which time immunosuppression was continued. At the end of the treatment period the animals were sacrificed and the number of cysts per lung determined. Compound IA reduced the number of cysts by >99% while Compound IBii reduced the cyst counts by approximately 84% (compared to the vehicle control, 10% DMSO).

| Compound | number of cysts in the lungs (P. carinii [1]) | reduction of the number of cysts per lung compared to the vehicle control (P. carinii [2]) |
| --- | --- | --- |
| CCC(C)CC(C)CCCCCCCCC(=O)NC1CC(O)C(O)NC(=O)C2C(O)C(C)CN2C(=O)C(C(O)CC(N)=O)NC(=O)C(C(O)C(O)c2ccc(O)cc2)NC(=O)C2CC(O)CN2C(=O)C(C(C)O)NC1=O (stereo not drawn) [Compound IA] (X1-[ξOrn(4,5-diOH)]T[Hyp][ξhTyr(βξ-OH,γξ-OH)][X2][ξPro(3ξ-OH,4ξ-Me)]; lactam 1-C; configuration not given here) | No cysts could be found | > 99% |
| CCCCCCCCOc1ccc(C(=O)NC2C[C@@H](O)[C@@H](O)NC(=O)C3[C@@H](O)[C@@H](C)CN3C(=O)C(C(C)O)NC(=O)C([C@H](O)[C@@H](O)c3ccc(O)cc3)NC(=O)C3C[C@@H](O)CN3C(=O)C(C(C)O)NC2=O)cc1 (stereo partly drawn) [Compound IBii, 1-[(4R,5R)-4,5-dihydroxy-N²-[4-(octyloxy)benzoyl]-L-ornithine]echinocandin B] ({Benzoyl(4-octyloxy)}-[ξOrn(4R-OH,5R-OH)][ξT][ξPro(4R-OH)][ξhTyr(3S-OH,4S-OH)][ξT][X3]; lactam 1-C) | – | approximately 84% |
